Data set [1] can be described thus: Metabolic stability in hepatic S9 fraction, hamster. To be noted: 2 μM. The class given is in vitro ADME. Here is the method: (§1) Blood plasma and S9 stability was studied as described previously ([8]). In brief, the compounds were incubated at 2 μM in hamster, rat, dog, monkey, or human plasma samples for up to 4 h at 37°C. For S9 stability, the compounds were incubated at 2 μM in hamster, rat, dog, monkey, or human intestinal and hepatic S9 fractions for up to 90 min at 37°C in the presence of NADPH and uridine 5′-diphosphoglucuronic acid trisodium salt (UDPGA) (Sigma-Adrich). The samples were analyzed by liquid chromatography coupled to triple-quadrupole mass spectrometry (LC-MS/MS).
(§2) The data (analyte-to-internal standard peak area ratio) were plotted on a semilog scale and fitted using an exponential fit. The half-life (t1/2) was determined assuming first-order kinetics.

The nature of the next data set: Kinetic solubility. The class given is physicochemical. To be noted: 37 °C, kinetic from dmso stock. Here is the method: The samples were incubated at 37°C for 1 h, followed by centrifugation at 2,800 relative centrifugal force (RCF) for 30 min at room temperature. Thermodynamic solubility was determined with the crystalline-free base of GS-6620 or amorphous GS2 using the shaking flask method. The concentrations of the compounds in supernatants were determined by HPLC.

For another data set, the target named is T1, CatA (Homo sapiens, UniProt P10619).
T1 construct: purified from peripheral blood mononuclear cells (PBMCs) according to a previously published procedure; from tissue; host or cells: peripheral blood mononuclear cells (PBMCs)
T1 sequence (P10619 29-480): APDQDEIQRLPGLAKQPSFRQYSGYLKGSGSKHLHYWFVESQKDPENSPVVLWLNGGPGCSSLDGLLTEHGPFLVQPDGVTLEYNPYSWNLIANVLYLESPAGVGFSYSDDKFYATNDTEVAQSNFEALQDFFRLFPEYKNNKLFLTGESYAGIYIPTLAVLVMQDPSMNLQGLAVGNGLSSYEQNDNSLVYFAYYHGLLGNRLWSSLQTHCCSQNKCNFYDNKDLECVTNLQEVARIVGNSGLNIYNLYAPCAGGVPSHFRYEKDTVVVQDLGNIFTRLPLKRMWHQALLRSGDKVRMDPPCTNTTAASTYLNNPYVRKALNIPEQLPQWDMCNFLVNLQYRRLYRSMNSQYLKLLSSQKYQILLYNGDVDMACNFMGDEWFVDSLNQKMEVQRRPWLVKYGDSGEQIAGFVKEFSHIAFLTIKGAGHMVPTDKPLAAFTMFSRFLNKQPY
Kind of data set: Ester cleavage by CatA. The format is biochemical. To be noted: for Amidate ester cleavage, specific activity: CatA, GS-6620-containing diastereomeric mixture was used. As to the method:
(§3) Biochemical assays studying prodrug cleavage have been described previously ([8]). In brief, the cleavages of GS2 by CATA, CES1, CES2, and HINT1 were assessed in vitro. The reaction substrates and products were monitored over time by high-performance liquid chromatography (HPLC).

Data set [2] in a line: Metabolic stability in hepatic S9 fraction, monkey. The class given is in vitro ADME. To be noted: monkey (cynomolgus); 2 μM. Here is the method:
as §1, §2

The next data set has as its system HCV GT1a replicon. Put plainly: HCV GT1a replicon, stably transfected Huh-Lunet cells. The class given is cell-based, hepatitis C virus. To be noted: for EC50: Hepatitis C virus, 72 h, stably transfected Huh-Lunet cells, 3 days. Here is the method:
Primary hepatocytes from humans, hamsters, dogs, and monkeys were purchased from BioreclamationIVT in 12-well plates seeded at confluence (0.88 × 10^6 cells/well). Huh-Lunet cells were obtained from ReBlikon GmbH (Mainz, Germany) ([19]). Huh-1C was derived from a GT1a replicon clone in which HCV replication was cured. All Huh-Lunet- and Huh-1C-based replicon cell lines were cultured in Dulbecco's modified Eagles' medium (DMEM) with GlutaMAX (Invitrogen, Carlsbad, CA) supplemented with 10% fetal bovine serum (FBS; HyClone, Logan, UT) and 100 U/ml penicillin (Invitrogen). Replicon cell lines containing genotype 1a (H77) and 2a (JFH1) were created as previously reported ([20][–][22]). Caco-2 cells were maintained in DMEM with sodium pyruvate, GlutaMAX supplemented with 1% penicillin-streptomycin, 1% nonessential amino acids, and 10% FBS in an incubator set at 37°C, 90% humidity, and 5% CO2.
GT1a, GT1b, and GT2a are authentic subgenomic replicons of the indicated strain. Creation of these HCV replicons was reported previously ([7]).
The EC50s, defined as the concentration at which there was a measured 50% decrease in HCV replicon level, were determined in replicon assay as previously described ([24]). Briefly, replicon cells were seeded into 96-well plates. Compounds were serially diluted in DMSO at 200× final concentrations and then added to the assay plate. Luciferase expression was quantified after 3 days of incubation using a commercial luciferase assay (Promega, Madison, WI). Data were analyzed using GraphPad Prism 6.0 (La Jolla, CA).
X represents log of compound concentration and Y represents replicon replication as the percentage of DMSO control. EC50s were calculated as an average from at least three independent experiments.
(Replicon systems follow genome replication, usually without infectious particles.)

Another data set has as its target T2, CES2 (Homo sapiens, UniProt O00748).
T2 construct: purchased R&D Systems (Minneapolis, MN)
T2 sequence (O00748 27-559): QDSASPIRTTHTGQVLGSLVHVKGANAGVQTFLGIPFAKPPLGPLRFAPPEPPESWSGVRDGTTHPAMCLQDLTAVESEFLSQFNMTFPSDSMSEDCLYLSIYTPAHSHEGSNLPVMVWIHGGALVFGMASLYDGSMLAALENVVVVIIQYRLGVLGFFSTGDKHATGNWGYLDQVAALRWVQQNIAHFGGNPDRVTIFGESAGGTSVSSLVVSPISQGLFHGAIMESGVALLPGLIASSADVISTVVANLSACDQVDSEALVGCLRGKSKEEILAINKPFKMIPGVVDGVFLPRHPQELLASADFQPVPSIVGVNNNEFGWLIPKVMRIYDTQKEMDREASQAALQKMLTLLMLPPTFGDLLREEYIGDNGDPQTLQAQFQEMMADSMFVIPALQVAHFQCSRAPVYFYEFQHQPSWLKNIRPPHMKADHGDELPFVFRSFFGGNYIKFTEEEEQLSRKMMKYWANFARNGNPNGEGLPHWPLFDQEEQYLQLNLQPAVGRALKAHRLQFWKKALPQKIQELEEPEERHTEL
Put plainly: Ester cleavage by CES2. The class given is biochemical. To be noted: GS-6620-containing diastereomeric mixture was used. Here is the method:
as §3

Setting [3] is: 0.1 N HCl, simulated gastric fluid, HCl (pH 1.0).

≈ marks a conversion by molar mass, not a printed value. A value given as a limit tells only on which side of the number the result lay.

For the molecule `CC(C)OC(=O)C(C)(C)N[P@](=O)(OC[C@H]1O[C@@](C#N)(c2ccc3c(N)ncnn23)[C@](C)(O)[C@@H]1O)Oc1ccccc1` [GS2], the “Metabolic stability in hepatic S9 fraction, predicted hepatic extraction” value in data set [1] was 93%; in data set [2] it was 91%. Also, the solubility (kinetic) at 1 h in “Kinetic solubility” (setting [3]) was more than 100 µM; in the data set “Kinetic solubility” (aqueous buffer, PBS (pH 7.0)) it was more than 100 µM. In addition, the “Amidate ester cleavage, specific activity” value on CatA is 385 pmol/min/µg; on CES2, “Stable”. The “CatA activity lower than toward GS-6620-containing diastereomeric mixture” value on CatA (isopropyl ester cleavage) is reported as 11 fold. Also, the “Fold (GS2/GS-6620)” value in the data set on HCV GT1a replicon (EC50 ratio, Huh-Lunet) turned out to be 3.5. The concentration giving a half-maximal response (EC50) in the data set on HCV GT1a replicon turned out to be 380 ± 150 nM.
In the case of `CC(C)OC(=O)[C@H](C)N[P@](=O)(OC[C@H]1O[C@@](C#N)(c2ccc3c(N)ncnn23)[C@](C)(O)[C@@H]1OC(=O)C(C)C)Oc1ccccc1` [GS-6620, reference compound], the “Metabolic stability in hepatic S9 fraction, predicted hepatic extraction” value in data set [1] is 97%; in data set [2] it was 95%. Besides, the solubility (kinetic) at 1 h is 87 µM (≈ 56.1 µg/mL) in the data set “Kinetic solubility” (setting [3]) and 46 µM (≈ 29.7 µg/mL) in “Kinetic solubility” (aqueous buffer, PBS (pH 7.0)). Besides, the results for the “Amidate ester cleavage, specific activity” value on CatA and on CES2 were 4,163 pmol/min · μg and “Stable”, respectively. For the same molecule, the midpoint of the response in the data set with HCV GT1a replicon, the EC50, lay at 110 ± 50 nM. Moreover, at CES2, the “3′-Ester cleavage, specific activity” value turned out to be 60.1 pmol/min/µg.

In general, kinetic solubility refers to solubility judged after dilution from a stock solution rather than from solid. As usually defined, the EC50 is the midpoint of the concentration-response curve.

The record behind these values is paper PMC6105845, “Nucleotide Prodrug Containing a Nonproteinogenic Amino Acid To Improve Oral Delivery of a Hepatitis C Virus Treatment” (Antimicrobial Agents and Chemotherapy, 2018).
